Several values for one entry are separate records, joined by “and”; a condition that tells them apart may be missing. Identical values can stand only once. Entries after “also recorded” stand apart in the source; their conditions may differ. Like-named read-outs stand apart in the source and are kept apart here.
Key:
[1] = biological target: T1, human microsomal 11β-HSD1 (Homo sapiens, UniProt P28845); assay: Inhibition of cortisone reduction (11β-HSD1 reductase activity) in human liver microsomes, cortisol quantified by HPLC; details: for IC50: IC50, inhibition of cortisone reduction
T1 sequence (P28845 whole entry): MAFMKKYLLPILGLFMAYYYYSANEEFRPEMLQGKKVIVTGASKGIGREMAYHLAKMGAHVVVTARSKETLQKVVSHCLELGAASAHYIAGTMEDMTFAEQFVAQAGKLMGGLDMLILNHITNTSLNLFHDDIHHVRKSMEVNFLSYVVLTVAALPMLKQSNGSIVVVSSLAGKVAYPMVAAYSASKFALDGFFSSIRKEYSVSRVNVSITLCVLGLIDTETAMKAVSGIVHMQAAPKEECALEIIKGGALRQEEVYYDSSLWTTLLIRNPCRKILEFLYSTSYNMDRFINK
Procedure: (§1) In terms of 11β-HSD1 reductase activity, inhibition analysis was performed as follows: 50 µl of tea extract were added to a mixture containing 400 µM cortisone, 0.8 mM NADPH solution in 100 mM phosphate buffer pH 7.4. […] The total assay volume was 250 µl.
(§2) The reaction was stopped by adding 250 µl ice-cold ethylacetate and vortexing, followed by a 30 sec centrifugation at 13,000 RPM in a microcentrifuge. The organic phase was separated and the aqueous phase extracted two more times with 250 µl ethylacetate. The ethylacetate phases were combined and the solvent was removed in a SpeedVac (ThermoSavant). The resulting residue was dissolved in 150 µl methanol-water (58∶42, v/v) and used for metabolite quantification by HPLC.
(§3) Product yield was quantified by peak integration of the cortisone and cortisol peaks, respectively.
(§4) The data obtained were plotted as substrate-velocity curves and analyzed by nonlinear-regression.

purified 11β-HSD1 [2] = biological target: T2, purified 11β-HSD1 (Homo sapiens, UniProt P28845); assay: Inhibition of cortisone reduction by purified human 11β-HSD1; assay type: biochemical
T2 construct: from tissue; host or cells: human liver
T2 sequence (P28845 whole entry): as above
Procedure: The total assay volume was 250 µl.

[3] = biological target: T3, 11β-HSD1 in human liver microsomes (Homo sapiens, UniProt P28845); assay: Inhibition of cortisol oxidation (11β-HSD1 dehydrogenase activity) in human liver microsomes, HPLC; assay type: biochemical; details: pH 9.0, NADP
T3 construct: The reaction was started by adding 5 µl of human liver microsomes (218 µg protein); from tissue; host or cells: human liver (microsomal fraction)
T3 sequence (P28845 whole entry): as above
Procedure: Here, the incubation time was 60 min at 37°C in a 100 mM phosphate buffer pH 9.0.

[4] = biological target: T1, human microsomal 11β-HSD1; assay: biochemical
Procedure: as §1, §2, §3, §4

purified 11β-HSD1 [5] = biological target: T2, purified 11β-HSD1; assay: Western Blot analysis for EGCG-induced 11β-HSD1 aggregate formation; details: preincubation 3 h at 37°C, up to 100 µM
Procedure: To exclude EGCG-induced 11β-HSD1 aggregate formation, purified 11β-HSD1 (2.14 µg) was preincubated with 25–100 µM EGCG (3 h at 37°C) and then prepared for sodium dodecyl sulfate polyacrylamide gel electrophoresis (SDS-PAGE) according to the manufacturer's protocol. As a control, the same volume of untreated purified protein was loaded onto the parallel lane.
The resolved proteins were transferred to nitrocellulose membranes. After blocking the membrane for 1 h at RT with 5% non-fat dry milkpowder in PBS-buffer, the blocking solution was replaced by the primary antibody at a 1∶2,000 dilution and the membrane was incubated at 4°C for about 16 h. Primary and secondary antibodies were diluted in PBS containing 2.5% non-fat dry milkpowder. The membrane was washed three times and then the corresponding secondary antibody was added at a dilution of 1∶10,000. After a 1.5 h incubation at RT the membrane was washed three times and the specific Western blot signals of 11β-HSD1 were detected by the ECL Western Blotting System according to the manufacturer's instructions.

[6] = read-out: inhibition of cortisone reduction

**Q.** Which inhibition at 200 µM [1, 6] does the source give for `Oc1cc(O)c2c(c1)O[C@H](c1cc(O)c(O)c(O)c1)[C@H](O)C2` [EGC, (−)-epigallocatechin] here?
**A.** Its inhibition at 200 µM is about 25%.

**Q.** With `O=C(O[C@@H]1Cc2c(O)cc(O)cc2O[C@@H]1c1cc(O)c(O)c(O)c1)c1cc(O)c(O)c(O)c1` [EGCG, (−)-epigallocatechin-3-gallate] as the molecule, how does the type of inhibition (purified 11β-HSD1 [2]; purified 11β-HSD1, with respect to cortisone) read?
**A.** Its type of inhibition is “mixed inhibition; also recorded: mixed mode”.

**Q.** And the Ki (purified 11β-HSD1 [2]; purified human 11β-HSD1, read-out: Ki (estimated by Dixon-plot) on cortisone reduction)?
**A.** Its Ki is 20.9 µM.

**Q.** And the Ki (purified 11β-HSD1 [2]; purified human 11β-HSD1, read-out: Ki (non-linear regression) on cortisone reduction)?
**A.** Its Ki is 18.7 µM.

**Q.** And the IC50 [3]?
**A.** The IC50 was 131 µM.

**Q.** What about the Ki [4] of the same molecule?
**A.** Its Ki is 22.7 µM and 17.8 µM.

**Q.** What about the IC50 ([1]; human liver microsomes, freshly prepared solution) of the same molecule?
**A.** The IC50 was 58 µM.

**Q.** And the IC50 ([1]; stored solution, human liver microsomes, aqueous solution stored at −20°C for one week)?
**A.** The IC50 was 26.9 µM.

**Q.** What about the type of inhibition ([1]; human liver microsomes, with respect to cortisone) of the same molecule?
**A.** The type of inhibition was “mixed inhibition”.

**Q.** And the inhibition at 100 µM [1, 6]?
**A.** The inhibition at 100 µM was about 75%.

**Q.** What about the protein aggregate formation (purified 11β-HSD1 [5]) of the same molecule?
**A.** The protein aggregate formation was “did not induce protein aggregate formation”.

**Q.** With `Oc1cc(O)c2c(c1)O[C@@H](c1cc(O)c(O)c(O)c1)[C@H](O)C2` [GC, (−)-gallocatechin] as the molecule, how does the inhibition at 100 µM [1, 6] read?
**A.** Its inhibition at 100 µM is about 53%.

**Q.** Which “influence on cortisol production” value (purified 11β-HSD1 [2]; up to 300 µM, purified human 11β-HSD1) does the source give for `OO` [hydrogen peroxide, reference compound] here?
**A.** Its value is “No 11β-HSD1 inhibition”.

**Q.** And the “influence on cortisol production” value ([1]; up to 300 µM, human liver microsomes)?
**A.** Its value is “No 11β-HSD1 inhibition”.
